According to PMC9500038, “A fungal tolerance trait and selective inhibitors proffer HMG-CoA reductase as a herbicide mode-of-action” (Nature Communications, 2022):
Entries after “also recorded” stand apart in the source; their conditions may differ.

Key:
AtHMG1 = biological target: T1, AtHMG1 (Arabidopsis thaliana, UniProt P14891); assay: biochemical; assay type: biochemical; settings: for selectivity for AtHMG1 in vitro (dose-response): inhibition profiles AtHMG1 versus HsHMGCR; for IC50: wild-type AtHMG1, in vitro
T1 construct: AtHMG1 (Uniprot P14891, At1g76490, residues 121–592); His6 (N); TEV cleavage site (N); made in house; host or cells: E. coli T7 SHuffle Express
Protocol: An E. coli codon-optimised DNA sequence encoding the conserved […] region of AtHMG1 (Uniprot P14891, At1g76490, residues 121–592) was cloned into pQE30 (Qiagen) following an N-terminal His6-tag and tobacco etch virus cleavage site. The protein was expressed in the T7 SHuffle Express strain of E. coli (New England Biolabs) transformed with pREP4 (Qiagen) with the proteins expressed and purified as previously described. Briefly, cultures were grown in lysogeny broth containing 100 μg/mL ampicillin and 35 μg/mL kanamycin at 30 °C to an OD600 of 0.8–1.0. Cells were cooled to 16 °C before the expression was induced with 0.1 mM isopropyl β-D-1-thiogalactopyranoside. Following overnight culture, cells were harvested by centrifugation and lysed by ultrasonication in 100 mM HEPES (pH 7.5), 150 mM sodium chloride, 5 mM dithiothreitol, 0.1% Triton X-100. Lysed cells were then centrifuged (15,000×g) and the supernatant was incubated in 30 mL batches with Ni-NTA resin overnight at 4 °C. The resin was then washed with 50 mL of 100 mM HEPES (pH 7.5), 150 mM sodium chloride, 5 mM dithiothreitol followed by 50 mL of 100 mM HEPES (pH 7.5), 150 mM sodium chloride, 5 mM dithiothreitol, 20 mM imidazole. The protein was then eluted with 50 mL of 100 mM HEPES (pH 7.5), 150 mM sodium chloride, 5 mM dithiothreitol, 300 mM imidazole. Eluted protein was concentrated with a 30 kDa centrifugal filter unit (Millipore) and purified by size-exclusion chromatography (HiLoad 16/600 Superdex 200) in 100 mM HEPES (pH 7.5), 150 mM sodium chloride, 5 mM dithiothreitol. The protein was assessed for purity by SDS-PAGE, and protein concentration was determined by spectrophotometry.
(§1) AtHMG1 described above and human HMGR (HsHMGCR, Uniprot P04035, residues 441–888, cloned as above) were purified as above, and activity was determined by spectrophotometric measurement of the decrease in absorbance at 340 nm that occurs with NADPH oxidation in the presence of substrate HMG-CoA (Sigma-Aldrich). Reactions were performed with an assay buffer consisting of 150 mM sodium chloride, 5 mM dithiothreitol, 50 mM HEPES pH 7.4 and 2% DMSO. For kinetics determinations, a final concentration of 150 nM enzyme was incubated at 37 °C in 300 μM NADPH and different concentrations of HMG-CoA. Non-linear regression analysis was performed with GraphPad Prism 9 by plotting the initial reaction rates, v0, interpolated from a standard curve against the substrate concentration. The Michaelis–Menten constant, Km, was determined by fitting the data with a Michaelis–Menten equation and values for kcat were calculated by dividing Vmax by the molar enzyme concentration. To calculate relative specific activity, 500 nM of test compounds were pre-incubated at 37 °C with enzyme and 300 μM NADPH for 15 min before adding HMG-CoA to 200 μM. Resultant values were background subtracted and normalised to the average of the no-inhibitor control. For IC50 determinations, the same protocol was used, but varying inhibitor concentrations. Rosuvastatin data were plotted with a four-parameter (WT), and normalised response (L558T) non-linear regression model and atorvastatin and analogues were plotted with a normalised response with variable slope non-linear regression model.

AtHMG1-L558T = biological target: T2, AtHMG1-L558T (Arabidopsis thaliana, UniProt P14891, L558T); assay: biochemical; assay type: biochemical; settings: for AtHMG1-L558T activity in the presence of statin: 500 nM, in comparison to wild-type
T2 construct: AtHMG1 (Uniprot P14891, At1g76490, residues 121–592); His6 (N); TEV cleavage site (N); made in house; host or cells: E. coli T7 SHuffle Express
Protocol: as §1

A. thaliana = assay: Herbicidal activity assay on soil, pre- and post-emergence; assay type: in vivo, Arabidopsis thaliana; settings: for herbicidal activity: pre- and post-emergence
Protocol: Approximately 30 seeds of A. thaliana (accession Col-0) or E. tef were sown in 63 × 63 × 59 mm pots of Irish peat (Bord na Móna Horticulture Ltd, Newbridge, Ireland). Seeds were incubated in the dark for 3 days at 4 °C to synchronise germination. A single pre-emergence treatment (day 0) was performed when these seeds were transferred to a growth room at 22 °C with a 16:8 h light:dark photoperiod and 60% relative humidity. Two post-emergence treatments were performed following emergence of the seedlings (day 1) at days 4 and 7. Plants were watered accordingly throughout the experiment to maintain adequate moisture and photographed on day 16. Treatments were conducted with rosuvastatin, simvastatin, fluvastatin, atorvastatin (AK Scientific), pravastatin (BOC Sciences), lovastatin (Sapphire Bioscience), mevastatin, pitavastatin (Focus Bioscience), glyphosate, RoundUp® and atorvastatin analogues (1–9). To treat, 0.5 mL of each compound in a final concentration of 2% dimethyl sulfoxide (DMSO) and 0.02% Brushwet (SST Dandenong, Australia) was pipetted onto seedlings. Full experimental details and characterisation of atorvastatin analogue 1–9 synthesis can be found in Supplementary Method 1 and Supplementary Figs. 7–62. Growth inhibition was quantified by detecting green pixels for healthy seedlings using ImageJ (National Institutes of Health, 1.53 v) and the ‘Threshold Colour’ plug-in with the following settings: hue 50–110, saturation 125–255, brightness 30–255[67]. Images were converted into 8-bit format, and pixels measured over the same area. Data were normalised to a negative control to provide percentage inhibition.

HsHMGCR = biological target: T3, HsHMGCR (Homo sapiens, UniProt P04035); assay: In vitro HMGR assay (NADPH depletion), HsHMGCR; assay type: biochemical
T3 construct: HsHMGCR, Uniprot P04035, residues 441–888; His6 (N); TEV cleavage site (N); made in house; host or cells: E. coli T7 SHuffle Express (by 'cloned as above ... purified as above')
T3 sequence (P04035 441-888): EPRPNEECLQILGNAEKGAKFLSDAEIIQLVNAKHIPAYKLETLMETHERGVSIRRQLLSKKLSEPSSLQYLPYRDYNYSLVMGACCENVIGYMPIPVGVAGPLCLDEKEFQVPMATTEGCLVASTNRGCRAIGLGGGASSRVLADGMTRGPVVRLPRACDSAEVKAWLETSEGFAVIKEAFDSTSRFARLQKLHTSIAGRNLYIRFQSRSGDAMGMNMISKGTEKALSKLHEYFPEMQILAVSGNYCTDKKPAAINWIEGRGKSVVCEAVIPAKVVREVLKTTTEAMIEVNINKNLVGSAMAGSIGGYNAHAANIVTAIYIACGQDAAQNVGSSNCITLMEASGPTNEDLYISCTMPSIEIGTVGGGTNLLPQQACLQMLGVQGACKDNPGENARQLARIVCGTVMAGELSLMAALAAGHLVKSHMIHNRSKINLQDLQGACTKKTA
Protocol: as §1, with “Rosuvastatin data were plotted with a four-parameter (WT), and normalised response (L558T) non-linear regression model and atorvastatin and analogues were plotted with a normalised response with variable slope non-linear regression model.” left out

[1] = tested on: wild-type (WT) A. thaliana; assay: In planta statin resistance assay, non-transformed WT; assay type: in vivo; settings: Arabidopsis thaliana; growth medium, green pixels; read-out: IC50 growth inhibition, non-transformed WT
Protocol: (§2) DNA encoding the full-length AtHMG1 protein (Uniprot P14891, residues 1–592) and the corresponding L558T mutant were cloned into a derivative of the pMDC43 binary vector[75] to yield 35 S::AtHMG1 and 35 S::AtHMG1-L558T transgenes, respectively. These constructs were then introduced into Agrobacterium tumefaciens strain LBA4404 and separately used to transform A. thaliana by the floral dip method[76],[77]. Seeds (T0/1) of transformed plants were collected and surface sterilised using 600 µL 70% ethanol, 750 µL 100% ethanol and soaked in 800 µL 50% bleach for 8 min, before washing with 800 µL sterile water and resuspension with 0.1% agar. Selection was performed on 30 µg/mL hygromycin growth medium (1% agar, 1% glucose, 0.45% Murashige & Skoog salts with vitamins, 0.3% 2-(N-morpholino)-ethanesulfonic acid (MES) (v/v), pH 5.7) in a growth room at 22 °C with 16:8 h light:dark photoperiod and 60% relative humidity. Surviving plants were transferred to 63 ×63 × 59 mm pots of Irish peat and grown to maturity in the same growth conditions. Seeds from plants with an adequate seed yield were then sterilised and selected again as described above with 30 µg/mL hygromycin growth medium. […] Plates were sealed with porous tape and grown for a minimum of 10 days with the growth conditions described above. Plates were then imaged, and growth quantified using ImageJ as described above. […]

[2] = tested on: 35 S::AtHMG1 A. thaliana lines; assay: In planta statin resistance assay, 35 S::AtHMG1 lines; assay type: in vivo; settings: Arabidopsis thaliana; 19 T2 lines combined; read-out: IC50 growth inhibition, 35 S::AtHMG1 lines
Protocol: as §2

[3] = tested on: 35 S::AtHMG1-L558T A. thaliana lines; assay type: in vivo, Arabidopsis thaliana
Protocol: DNA encoding the full-length AtHMG1 protein (Uniprot P14891, residues 1–592) and the corresponding L558T mutant were cloned into a derivative of the pMDC43 binary vector[75] to yield 35 S::AtHMG1 and 35 S::AtHMG1-L558T transgenes, respectively. These constructs were then introduced into Agrobacterium tumefaciens strain LBA4404 and separately used to transform A. thaliana by the floral dip method[76],[77]. Seeds (T0/1) of transformed plants were collected and surface sterilised using 600 µL 70% ethanol, 750 µL 100% ethanol and soaked in 800 µL 50% bleach for 8 min, before washing with 800 µL sterile water and resuspension with 0.1% agar. Selection was performed on 30 µg/mL hygromycin growth medium (1% agar, 1% glucose, 0.45% Murashige & Skoog salts with vitamins, 0.3% 2-(N-morpholino)-ethanesulfonic acid (MES) (v/v), pH 5.7) in a growth room at 22 °C with 16:8 h light:dark photoperiod and 60% relative humidity. Surviving plants were transferred to 63 ×63 × 59 mm pots of Irish peat and grown to maturity in the same growth conditions. Seeds from plants with an adequate seed yield were then sterilised and selected again as described above with 30 µg/mL hygromycin growth medium. […] Plates were sealed with porous tape and grown for a minimum of 10 days with the growth conditions described above. Plates were then imaged, and growth quantified using ImageJ as described above. Total green pixels were normalised against negative controls for the respective lines (2% DMSO and water) to provide percentage inhibition. […] Growth inhibition at varying concentrations of hygromycin and rosuvastatin were plotted with a four-parameter non-linear regression model using GraphPad Prism 9.

T2 sequence (P14891 121-592 L558T): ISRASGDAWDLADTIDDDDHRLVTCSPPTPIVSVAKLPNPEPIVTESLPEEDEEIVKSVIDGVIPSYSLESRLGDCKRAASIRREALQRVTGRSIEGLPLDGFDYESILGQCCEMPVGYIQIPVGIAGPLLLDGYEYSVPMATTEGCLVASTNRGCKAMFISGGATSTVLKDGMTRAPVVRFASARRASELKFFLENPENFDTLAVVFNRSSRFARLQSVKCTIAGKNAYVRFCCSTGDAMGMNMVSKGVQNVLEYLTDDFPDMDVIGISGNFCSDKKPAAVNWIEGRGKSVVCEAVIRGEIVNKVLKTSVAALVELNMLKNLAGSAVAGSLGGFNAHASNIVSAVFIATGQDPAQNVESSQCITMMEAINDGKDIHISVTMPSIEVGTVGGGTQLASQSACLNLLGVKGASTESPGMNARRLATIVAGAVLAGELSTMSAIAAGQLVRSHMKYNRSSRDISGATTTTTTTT
T1 sequence (P14891 121-592): as the sequence (P14891 121-592 L558T) above, with T438L counted along it

CC(C)c1c(C(=O)Nc2ccccc2)c(-c2ccccc2)c(-c2ccc(F)cc2)n1CC[C@@H](O)C[C@@H](O)CC(=O)O [atorvastatin]
selectivity for AtHMG1 in vitro (dose-response) (AtHMG1): not selective
AtHMG1-L558T activity in the presence of statin (AtHMG1-L558T): retained activity

O=C(O)C[C@H](O)C[C@H](O)CCn1c(-c2ccc(F)cc2)c(-c2ccccc2)c(C(=O)Nc2ccccc2)c1C1CCC1 [compound 7]
herbicidal activity (A. thaliana): retained herbicidal activity
specificity for AtHMG1 over HsHMGCR (AtHMG1; in vitro, from IC50 dose-response curves): > 20 fold
selectivity in vitro for AtHMG1 over HsHMGCR (AtHMG1; initial screen at 500 nM): selective; also recorded: preference for AtHMG1 over HsHMGCR
IC50 (AtHMG1): 32 nM
IC50 (HsHMGCR): 890 nM

O=C(O)C[C@H](O)C[C@H](O)CCn1c(-c2ccc(F)cc2)c(-c2ccccc2)c(C(=O)Nc2ccccc2)c1C1CCCC1 [compound 8]
selectivity for AtHMG1 in vitro (dose-response) (AtHMG1): not selective

CC(C)n1c(/C=C/C(O)CC(O)CC(=O)O)c(-c2ccc(F)cc2)c2ccccc21 (stereo not shown) [fluvastatin]
AtHMG1-L558T activity in the presence of statin (AtHMG1-L558T): retained activity

CC[C@H](C)C(=O)O[C@H]1C[C@@H](C)C=C2C=C[C@H](C)[C@H](CC[C@@H]3C[C@@H](O)CC(=O)O3)[C@H]21 [lovastatin]
AtHMG1-L558T activity in the presence of statin (AtHMG1-L558T): retained activity

CC[C@H](C)C(=O)O[C@H]1CCC=C2C=C[C@H](C)[C@H](CC[C@@H]3C[C@@H](O)CC(=O)O3)[C@H]21 [mevastatin]
AtHMG1-L558T activity in the presence of statin (AtHMG1-L558T): retained activity

O=C(O)C[C@H](O)C[C@H](O)/C=C/c1c(C2CC2)nc2ccccc2c1-c1ccc(F)cc1 [pitavastatin]
AtHMG1-L558T activity in the presence of statin (AtHMG1-L558T): retained activity

CC[C@H](C)C(=O)O[C@H]1C[C@H](O)C=C2C=C[C@H](C)[C@H](CC[C@@H](O)C[C@@H](O)CC(=O)O)[C@H]21 [pravastatin]
AtHMG1-L558T activity in the presence of statin (AtHMG1-L558T): retained activity

CC(C)c1nc(N(C)S(C)(=O)=O)nc(-c2ccc(F)cc2)c1/C=C/[C@@H](O)C[C@@H](O)CC(=O)O [rosuvastatin]
herbicidal activity (A. thaliana): most herbicidal statin
concentration lethal to A. thaliana (A. thaliana; rosuvastatin without formulation beyond a wetting agent, Roundup formulated, same conditions): ~ 15 μM
IC50 (AtHMG1): 53 nM
IC50 (AtHMG1-L558T): > 1000 nM
AtHMG1-L558T activity in the presence of statin (AtHMG1-L558T): retained activity
resistance of AtHMG1-L558T versus WT in vitro (AtHMG1-L558T; in vitro): > 20 fold
IC50 [1]: 3000 nM
IC50 [2]: 46000 nM
35 S::AtHMG1-L558T lines less sensitive to treatment than 35 S::AtHMG1 lines ([3]; 80 µM versus 5 µM, compared to untreated WT): up to 16 fold
resistance of 35 S::AtHMG1-L558T lines versus 35 S::AtHMG1 lines ([3]; in planta): over sixfold more resistant
resistance of 35 S::AtHMG1-L558T lines versus non-transformed WT ([3]; in planta): more than 100 fold

CCC(C)(C)C(=O)O[C@H]1C[C@@H](C)C=C2C=C[C@H](C)[C@H](CC[C@@H]3C[C@@H](O)CC(=O)O3)[C@H]21 [simvastatin]
AtHMG1-L558T activity in the presence of statin (AtHMG1-L558T): retained activity
